This passage reports GI50 and TGI results from PubChem BioAssay (NCI).

Some test systems named below: MALME-3M melanoma; OVCAR-3 ovarian; DU-145 prostate; OVCAR-5 ovarian; SK-MEL-5 melanoma; SNB-19 CNS; K-562 leukemia; SR leukemia; UACC-62 melanoma; T-47D breast.
Holding throughout (experiment): NCI anticancer screen, dose series, 48 h

Values joined by “and” are separate entries in the source; they are usually repeats but may differ in a detail not shown here. Identical values can stand only once.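 How tested: cells in 96-well plates exposed to compound for 48 hours at five concentrations. GI50 marks 50% less growth. The concentration for full growth arrest is given as TGI.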

On to `CCCCCCNCc1cc(C(C)(C)C)cc(CNCCCCCC)c1O`, for which the GI50 in the assay with MALME-3M melanoma is 1.74 µM; in the assay on OVCAR-3 ovarian, 1.73 µM; in the assay with DU-145 prostate, 1.8 µM; in the assay with OVCAR-5 ovarian it was 1.54 µM; with SK-MEL-5 melanoma it was 1.65 µM; in the assay with SNB-19 CNS it was 1.76 µM. Besides, the GI50 in the assay with K-562 leukemia is 1.3 µM; in the assay on SR leukemia, 1.73 µM; in the assay on UACC-62 melanoma, 1.55 µM; in the assay with T-47D breast, 1.65 µM. The TGI was determined as 3.43 µM in the assay with MALME-3M melanoma; 3.15 µM with OVCAR-3 ovarian; 3.21 µM in the assay on DU-145 prostate; 2.88 µM with OVCAR-5 ovarian; 3.01 µM in the assay with SK-MEL-5 melanoma; 3.23 µM in the assay on SNB-19 CNS. Besides, the TGI came out at 3.04 µM in the assay on K-562 leukemia, 3.86 µM in the assay on SR leukemia, 2.91 µM in the assay with UACC-62 melanoma and 3.29 µM with T-47D breast.
Consider `Cc1cc(Cl)ccc1C(=O)c1ccc2ccccc2c1C(=O)O`, for which the TGI in the assay with MALME-3M melanoma, in the assay on OVCAR-3 ovarian, in the assay with DU-145 prostate, in the assay with OVCAR-5 ovarian, in the assay on SK-MEL-5 melanoma and in the assay on SNB-19 CNS was greater than 100 µM throughout. The TGI in the assay with K-562 leukemia, in the assay on SR leukemia, in the assay on UACC-62 melanoma and with T-47D breast was greater than 100 µM in each case.
As for `Cc1[nH]c2cc(F)ccc2c1-c1nc2c3cccnc3c3ncccc3c2[nH]1`, the GI50 in the assay with MALME-3M melanoma is 0.202 µM; in the assay on OVCAR-3 ovarian, 0.209 µM; with DU-145 prostate, 0.191 µM; in the assay with OVCAR-5 ovarian it was 0.573 µM; with SK-MEL-5 melanoma, 0.169 µM; with SNB-19 CNS, 0.257 µM. Also, the GI50 in the assay on K-562 leukemia was 0.324 µM; in the assay on SR leukemia, 0.0723 µM; with T-47D breast, 0.341 µM. The TGI with MALME-3M melanoma amounted to 0.769 µM; with OVCAR-3 ovarian, 1.56 µM; in the assay with DU-145 prostate, 1.8 µM; with OVCAR-5 ovarian, 2.65 µM; in the assay with SK-MEL-5 melanoma, 0.726 µM; with SNB-19 CNS, 3.87 µM. The TGI in the assay on K-562 leukemia came to 4.77 µM; with SR leukemia it was 0.797 µM; in the assay on T-47D breast, 1.28 µM.
`CN(C)c1cccc(F)c1C(=O)NC(=O)Nc1ccc(Cl)cc1`: the TGI in the assay on MALME-3M melanoma, with OVCAR-3 ovarian, with DU-145 prostate, in the assay with OVCAR-5 ovarian, with SK-MEL-5 melanoma and in the assay on SNB-19 CNS was greater than 100 µM in each case. In addition, the TGI in the assay with K-562 leukemia was greater than 34.4 µM; in the assay on SR leukemia, greater than 100 µM; in the assay with UACC-62 melanoma, greater than 100 µM; with T-47D breast, greater than 100 µM.
With `O=C1c2cccnc2C(=O)c2c1c(C(=O)OCCCN1CCCCC1)c1ccccn21`, the GI50 in the assay on MALME-3M melanoma is less than 0.0158 µM; in the assay on OVCAR-3 ovarian it was less than 0.0218 µM; in the assay on DU-145 prostate, less than 0.01 µM; in the assay on OVCAR-5 ovarian, 0.0344 µM; in the assay on SK-MEL-5 melanoma it was less than 0.0143 µM; with SNB-19 CNS, less than 0.01 µM. Besides, the GI50 is less than 0.0144 µM with K-562 leukemia, less than 0.01 µM in the assay with SR leukemia, less than 0.01 µM with UACC-62 melanoma and 1.1 µM with T-47D breast. For the same molecule, the TGI with MALME-3M melanoma came out at 0.0682 µM; with OVCAR-3 ovarian it was 0.156 µM; in the assay with DU-145 prostate, 1.29 µM; in the assay with OVCAR-5 ovarian, 1.83 µM; with SK-MEL-5 melanoma, 0.0466 µM; with SNB-19 CNS it was 1.83 µM. For the same molecule, the TGI in the assay with SR leukemia was greater than 100 µM; in the assay with UACC-62 melanoma, 0.0478 µM; with T-47D breast, 21.5 µM.
Take `COC(=O)[C@H](Cc1cn(C)cn1)NC(=O)[C@H](C)NC(=O)Nc1cc(C(F)(F)F)cc(C(F)(F)F)c1`: the GI50 in the assay with MALME-3M melanoma, in the assay on OVCAR-3 ovarian, in the assay with DU-145 prostate, in the assay with OVCAR-5 ovarian, in the assay on SK-MEL-5 melanoma and in the assay with SNB-19 CNS was greater than 10 µM throughout. The GI50 with K-562 leukemia is greater than 10 µM; in the assay on SR leukemia, greater than 10 µM; with UACC-62 melanoma, greater than 10 µM; in the assay on T-47D breast it was 7.58 µM. Also, the TGI in the assay with MALME-3M melanoma, with OVCAR-3 ovarian, with DU-145 prostate, in the assay with OVCAR-5 ovarian, with SK-MEL-5 melanoma and with SNB-19 CNS was greater than 10 µM in each case. Also, the TGI in the assay with K-562 leukemia, with SR leukemia, with UACC-62 melanoma and with T-47D breast was greater than 10 µM throughout.
Take `CCC(C)C(=O)OCC(=O)c1ccc(-c2ccccc2)cc1` (centres undefined): the TGI was greater than 100 µM in the assay on MALME-3M melanoma; greater than 100 µM in the assay on OVCAR-3 ovarian; greater than 100 µM in the assay on DU-145 prostate; greater than 100 µM in the assay on OVCAR-5 ovarian; 72.6 µM in the assay on SK-MEL-5 melanoma; greater than 100 µM in the assay on SNB-19 CNS. Further, the TGI in the assay with K-562 leukemia, in the assay with SR leukemia, in the assay on UACC-62 melanoma and in the assay with T-47D breast was greater than 100 µM throughout.
On to `Cc1cc(O)c(C2=NN(c3ccc(S(N)(=O)=O)cc3)C(/C=C/c3ccccc3)C2)cc1Cl` (centres undefined), for which the GI50 in the assay on MALME-3M melanoma is 3.01 µM; in the assay on OVCAR-3 ovarian, 11.5 µM; in the assay with DU-145 prostate, 14.1 µM; in the assay with OVCAR-5 ovarian, 3.18 µM; with SK-MEL-5 melanoma it was 4.23 µM; with SNB-19 CNS, 7.84 µM. Besides, the GI50 was 11.6 µM in the assay on K-562 leukemia, 12.7 µM in the assay with SR leukemia, 2.89 µM with UACC-62 melanoma and 3.38 µM in the assay with T-47D breast. Moreover, the TGI with MALME-3M melanoma came out at 17.4 µM; in the assay with OVCAR-3 ovarian it was 28.4 µM; in the assay on DU-145 prostate it was 38.6 µM; with OVCAR-5 ovarian, 14.7 µM; with SK-MEL-5 melanoma, 16.4 µM; with SNB-19 CNS, 19.9 µM. In addition, the TGI in the assay with K-562 leukemia is 87.5 µM; with SR leukemia it was 33.8 µM; with UACC-62 melanoma, 11.4 µM; with T-47D breast, 14.7 µM.
In the case of `COc1ccc2c(c1)-c1nn(CCCN(C)C)c3ccc([N+](=O)[O-])c(c13)N2`, the GI50 in the assay on MALME-3M melanoma was 0.306 µM and 0.908 µM; in the assay on OVCAR-3 ovarian, 0.339 µM and 1.11 µM; in the assay on OVCAR-5 ovarian it was 0.356 µM and 1.35 µM; in the assay with SNB-19 CNS, 0.192 µM and 0.59 µM; in the assay with K-562 leukemia, 0.145 µM and 0.338 µM; in the assay with SR leukemia it was 1.27 µM. The GI50 in the assay on UACC-62 melanoma is 0.314 µM and 0.934 µM; in the assay with T-47D breast, 0.668 µM and 0.308 µM. In addition, the TGI in the assay with MALME-3M melanoma is 2.9 µM and 7.68 µM; in the assay on OVCAR-3 ovarian, 3.95 µM and 7.29 µM; in the assay with DU-145 prostate, 4.72 µM and 2.86 µM; with OVCAR-5 ovarian, 3.46 µM and 9.7 µM; in the assay with SK-MEL-5 melanoma, 2 µM and 2.92 µM; in the assay with SNB-19 CNS, 6.33 µM and 11.3 µM. For the same molecule, the TGI was 5.57 µM and 12.1 µM in the assay with K-562 leukemia; 2.44 µM and 5.2 µM in the assay on UACC-62 melanoma; 11.4 µM and 2.27 µM with T-47D breast.
